What was measured:
[1] = Dissociation constant against folic acid receptor (FAR); Value ranges from 0.1-1 nM; parameters: species or system Homo sapiens
KB = experiment: Concentration required to completely block the uptake of either G5-FI-FA or G5-FI-FA-MTX dendrimer (30 nM) in FAR expressing KB cells; assay type: functional, cell-based; settings: Homo sapiens

- Kd [1]: 1 nM
SMILES: Nc1nc(=O)c2nc(CNc3ccc(C(=O)N[C@@H](CCC(=O)O)C(=O)O)cc3)cnc2[nH]1 [FOLIC ACID]
- Concentration (KB): 50 µM
